Molecular target: Glutaminyl-peptide cyclotransferase (Homo sapiens, UniProt Q16769)
Experiment: Inhibition of human glutaminyl cyclase expressed in HEK293 cells using L-glutaminyl-beta-naphthylamine as substrate after 1 hr by fluorometric analysis; call rule not given here

Sequence of Glutaminyl-peptide cyclotransferase (Q16769 whole entry): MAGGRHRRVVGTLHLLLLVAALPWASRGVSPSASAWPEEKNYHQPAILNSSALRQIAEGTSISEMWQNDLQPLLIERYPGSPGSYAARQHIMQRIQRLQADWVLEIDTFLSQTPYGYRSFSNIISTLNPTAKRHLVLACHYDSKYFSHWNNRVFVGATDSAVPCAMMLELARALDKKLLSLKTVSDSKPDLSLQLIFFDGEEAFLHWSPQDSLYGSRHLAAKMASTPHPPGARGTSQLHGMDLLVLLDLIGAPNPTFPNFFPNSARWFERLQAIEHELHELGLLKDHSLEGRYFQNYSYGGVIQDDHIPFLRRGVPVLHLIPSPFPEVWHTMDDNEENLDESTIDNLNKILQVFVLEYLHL

| Structure (SMILES) | IC50 |
| --- | --- |
| Cc1cncn1CCCNC(=S)Nc1cccnc1 | Active |
| Cc1cncn1CCCNC(=S)Nc1cccc2c1OCCO2 | Not Active |
| Cc1cncn1CCCNC(=S)Nc1ccc2cc[nH]c2c1 | Active |
| Cc1cncn1CCCNC(=S)Nc1ccc2c(c1)CCC2 | Active |

The remaining lines, values ahead:

| IC50 | Structure (SMILES) |
| --- | --- |
| Active | Cc1cncn1CCCNC(=S)Nc1ccc2cnccc2c1 |
| Active | Cc1cncn1CCCNC(=S)Nc1cccc2cccnc12 |
| Active | Cc1cncn1CCCNC(=S)Nc1cnc2ccccc2c1 |

Reference: ChEMBL document CHEMBL2390817, “Structure-activity relationship of human glutaminyl cyclase inhibitors having an N-(5-methyl-1H-imidazol-1-yl)propyl thiourea template” (Bioorg Med Chem, 2013)
